Reference: patent US20240335548A1, “MACROMOLECULES” (Starpharma Pty Ltd, priority 2011, published 2024)
Read-outs that look alike come from different tables or passages of the source.

Tests used:
A2780 = assay: IC50 using the MTT assay; assay type: cell-based; conditions: 72 hours
Experimental: (§1) The IC50 using the MTT assay [Wilson, Anne P. (2000). “Chapter 7: Cytotoxicity and viability”. In Masters, John R. W. Animal Cell Culture: A Practical Approach. Vol. 1 (3rd ed.). Oxford: Oxford University Press] was determined against various cancer cell lines after 72 hours.

A549 = assay: IC50 using the MTT assay; assay type: cell-based; conditions: 72 hours
Experimental: as §1

DU-145 = assay: IC50 using the MTT assay; assay type: cell-based; conditions: 72 hours
Experimental: as §1

H460 = assay: IC50 using the MTT assay; assay type: cell-based; conditions: 72 hours
Experimental: as §1

HCT-116 = assay: IC50 using the MTT assay; assay type: cell-based; conditions: 72 hours
Experimental: as §1

HT-29 = assay: IC50 using the MTT assay; assay type: cell-based; conditions: 72 hours
Experimental: as §1

MCF-7 = assay: IC50 using the MTT assay; assay type: cell-based; conditions: 72 hours
Experimental: as §1

PC-3 = assay: IC50 using the MTT assay; assay type: cell-based; conditions: 72 hours
Experimental: as §1

ES2 (Ovarian) = assay: Cell growth inhibition SRB assay; assay type: cell-based
Experimental: (§2) All solutions were prepared in saline (except docetaxel which was made in ethanol). All solutions were stored at −20° C. All values were based on the equivalent drug loading.

H460 (Lung) = assay: Cell growth inhibition SRB assay; assay type: cell-based
Experimental: as §2

PC-3 (Prostate) = assay: Cell growth inhibition SRB assay; assay type: cell-based
Experimental: as §2

[1] = Water solubility study on drug loaded dendrimers; assay type: physicochemical
Experimental: Protocol: To 30 mg of dendrimer (freeze-dried from water) was added 100 μL of deionised water. After mixing for 10 minutes, additional aliquots of water (10-30 μL per addition) were added with vortexing and incubation for 10 mins until full dissolution was obtained. This amount is represented in Table 1 as the water solubility of the dendrimer. The equivalent drug solubility is determined by multiplying the % drug loading/100 and is represented in Table 1 (column 3) as Equivalent drug solubility on dendrimer. Finally, the fold increase is obtained by dividing the Equivalent drug solubility on dendrimer by the solubility of the drug and is represented in Table 1 (column 4).

[2] = Plasma stability study: docetaxel release in mouse plasma; assay type: in vitro ADME; conditions: 37° C.
Experimental: Protocol: To 0.5 mL of mouse plasma was added 0.1 mL of dendrimer solution (2 mg/mL, drug equivalent in saline). The mixtures were vortexed (30 s) then incubated at 37° C. At various timepoints (0.5, 2.5, 4.5, 22 hours) 0.1 mL aliquots were removed and added to 0.2 mL ACN. The resulting mixtures were vortexed (30 s), centrifuged (10 min, 4° C.) filtered and analysed by HPLC (C8, 3.9×150 mm, 5 μm, wavelength=243 nm, 10 μL injections, gradient: 40-80% ACN/H2O (1-7 min), 80% ACN (7-9 min), 80-40% ACN (9-11 min), 40% ACN (11-15 min), 10 mM ammonium formate, pH 7.40) which when compared against a standard (2 mg//mL) provided the concentration of free docetaxel in the sample.

A2058 (Melanoma) = assay: Cell growth inhibition SRB assay; assay type: cell-based
Experimental: as §2

A549 (Lung) = assay: Cell growth inhibition SRB assay; assay type: cell-based
Experimental: as §2

DU145 (Prostate) = assay: Cell growth inhibition SRB assay; assay type: cell-based
Experimental: as §2

HCT116 (Colon) = assay: Cell growth inhibition SRB assay; assay type: cell-based
Experimental: as §2

HT29 (Colon) = assay: Cell growth inhibition SRB assay; assay type: cell-based
Experimental: as §2

MCAS (Ovarian) = assay: Cell growth inhibition SRB assay; assay type: cell-based
Experimental: as §2

MDA-MB-231 (Breast) = assay: Cell growth inhibition SRB assay; assay type: cell-based
Experimental: as §2

[3] = ES2, 72 hours, equivalent drug loading, average of duplicate
[4] = H460, 72 hours, equivalent drug loading, average of duplicate
[5] = PC-3, 72 hours, equivalent drug loading, average of duplicate
[6] = deionised water, until full dissolution
[7] = equivalent drug solubility divided by solubility of the drug
[8] = water solubility x % drug loading/100
[9] = A2058, 72 hours, equivalent drug loading, average of duplicate
[10] = A549, 72 hours, equivalent drug loading, average of duplicate
[11] = DU145, 72 hours, equivalent drug loading, average of duplicate
[12] = HCT116, 72 hours, equivalent drug loading, average of duplicate
[13] = HT29, 72 hours, equivalent drug loading, average of duplicate
[14] = MCAS, 72 hours, equivalent drug loading, average of duplicate
[15] = MDA-MB-231, 72 hours, equivalent drug loading, average of duplicate

Substance: BHALys[Lys]32[α-PEG1100]32[ε-TDA-DTX]32 [Example 18]
- IC50 (A2780): 5.7 nM
- IC50 (A549): 20.3 nM
- IC50 (DU-145): 11.6 nM
- IC50 (H460): 7.5 nM
- IC50 (HCT-116): 2.9 nM
- IC50 (HT-29): 1.8 nM
- IC50 (MCF-7): 3.3 nM
- IC50 (PC-3): 5.9 nM

Substance: BHALys[Lys]32[α-PEG2-DTX]32[ε-PEG1100]32 [10 (b)]
- GI50 (ES2 (Ovarian); [3]): 10.5 nM
- GI50 (H460 (Lung); [4]): 6.5 nM
- GI50 (PC-3 (Prostate); [5]): 9.5 nM

Substance: BHALys[Lys]32[α-PDT-DTX]32[ε-PEG1100]32 [9 (b)]
- GI50 (ES2 (Ovarian); [3]): 888 nM
- GI50 (H460 (Lung); [4]): 365 nM
- GI50 (PC-3 (Prostate); [5]): 618 nM

Substance: BHALys[Lys]32[α-DGA-Testosterone]32[ε-PEG1100]32 [20 (b)]
- Equivalent drug solubility on dendrimer [1]: 11.5 mg/mL
- Fold increase in drug solubility [1]: 482
- Water solubility of dendrimer [1]: >75 mg/mL

Substance: BHALys[Lys]32[α-o-PDA-DTX]32[ε-PEG1100]32 [7 (b)]
- Water solubility of dendrimer [1, 6]: 91 mg/mL
- Fold increase in drug solubility [1, 7]: 5000
- Equivalent drug solubility on dendrimer [1, 8]: 25 mg/mL
- Docetaxel release in plasma ([2]; 0.5 hours): 20.5 percentage of total docetaxel
- Docetaxel release in plasma ([2]; 2.5 hours): 32 percentage of total docetaxel
- Docetaxel release in plasma ([2]; 22 hours): 71.5 percentage of total docetaxel
- GI50 (ES2 (Ovarian)): 8 nM
- GI50 (H460 (Lung)): 4.5 nM
- GI50 (PC-3 (Prostate)): 6.5 nM

Substance: BHALys[Lys]32[α-Glu-PTX]32[ε-PEG2300]32 [Example 12]
- Water solubility of dendrimer [1]: 15 mg/mL
- Fold increase in drug solubility [1, 7]: 10000
- Equivalent drug solubility on dendrimer [1, 8]: 3 mg/mL

Substance: BHALys[Lys]32[α-GGG-Glu-DTX]32[ε-PEG1100]32 [14 (c)]
- IC50 (A2780): 4.6 nM
- IC50 (A549): 1.5 nM
- IC50 (DU-145): 7.3 nM
- IC50 (H460): 4.3 nM
- IC50 (HCT-116): 2.6 nM
- IC50 (HT-29): 0.5 nM
- IC50 (MCF-7): 0.5 nM
- IC50 (PC-3): 3.8 nM

Substance: BHALys[Lys]32[α-DGA-Testosterone]32[ε-PEG570]32 [Example 21]
- Equivalent drug solubility on dendrimer [1]: 14.8 mg/mL
- Fold increase in drug solubility [1]: 618
- Water solubility of dendrimer [1]: >81 mg/mL

Substance: BHALys[Lys]32[α-Glu-Testosterone]32[ε-PEG1100]32 [22 (b)]
- Equivalent drug solubility on dendrimer [1]: 14.7 mg/mL
- Fold increase in drug solubility [1]: 610
- Water solubility of dendrimer [1]: >89 mg/mL

Substance: BHALys[Lys]32[α-Glu-GEM]32[ε-PEG1100]32 [13 (b)]
- GI50 (A2058 (Melanoma); [9]): 100 nM
- GI50 (A549 (Lung); [10]): 73 nM
- GI50 (DU145 (Prostate); [11]): 99 nM
- GI50 (ES2 (Ovarian); [3]): 48 nM
- GI50 (H460 (Lung); [4]): 127 nM
- GI50 (HCT116 (Colon); [12]): 30.5 nM
- GI50 (HT29 (Colon); [13]): 117 nM
- GI50 (MCAS (Ovarian); [14]): 117 nM
- GI50 (MDA-MB-231 (Breast); [15]): 50.5 nM
- GI50 (PC-3 (Prostate); [5]): 288 nM

Substance: BHALys[Lys]32[α-4-HSBA-4Aba-DTX]32[ε-PEG1100]32 [1 (b)]
- GI50 (A2058 (Melanoma); [9]): 9.5 nM
- GI50 (A549 (Lung); [10]): 13 nM
- GI50 (DU145 (Prostate); [11]): 11.5 nM
- GI50 (ES2 (Ovarian); [3]): 16.5 nM
- GI50 (H460 (Lung); [4]): 13 nM
- GI50 (HCT116 (Colon); [12]): 8.5 nM
- GI50 (HT29 (Colon); [13]): 12.5 nM
- GI50 (MCAS (Ovarian); [14]): 29 nM
- GI50 (MDA-MB-231 (Breast); [15]): 11.5 nM
- GI50 (PC-3 (Prostate); [5]): 17 nM

Substance: BHALys[Lys]32[α-GILGVP-Glu-DTX]32[ε-t-PEG2300]32 [Example 17]
- IC50 (A2780): 291 nM
- IC50 (A549): 160 nM
- IC50 (DU-145): 290 nM
- IC50 (H460): 603 nM
- IC50 (HCT-116): 216 nM
- IC50 (HT-29): 85 nM
- IC50 (MCF-7): 93.7 nM
- IC50 (PC-3): 359 nM

Substance: BHALys[Lys]32[α-PSSP-DTX]32[ε-PEG1100]32 [2 (b)]
- Water solubility of dendrimer [1]: 57 mg/mL
- Fold increase in drug solubility [1, 7]: 2800
- Equivalent drug solubility on dendrimer [1, 8]: 14 mg/mL
- Docetaxel release in plasma ([2]; 0.5 hours): 5 percentage of total docetaxel
- Docetaxel release in plasma ([2]; 2.5 hours): 8 percentage of total docetaxel
- Docetaxel release in plasma ([2]; 22 hours): 15.5 percentage of total docetaxel
- GI50 (ES2 (Ovarian); [3]): 116 nM
- GI50 (H460 (Lung); [4]): 73 nM
- GI50 (PC-3 (Prostate); [5]): 110 nM

Substance: BHALys[Lys]32[α-Glu-DTX]32[ε-PEG1100]32 [5 (b)]
- Water solubility of dendrimer [1, 6]: 214 mg/mL
- Fold increase in drug solubility [1, 7]: 4000
- Equivalent drug solubility on dendrimer [1, 8]: 75 mg/mL
- Docetaxel release in plasma ([2]; 0.5 hours): 0 percentage of total docetaxel
- Docetaxel release in plasma ([2]; 2.5 hours): 0 percentage of total docetaxel
- Docetaxel release in plasma ([2]; 22 hours): 4 percentage of total docetaxel
- GI50 (A2058 (Melanoma)): 71.5 nM
- GI50 (A549 (Lung)): 56.5 nM
- GI50 (DU145 (Prostate)): 148 nM
- GI50 (ES2 (Ovarian)): 116 nM
- GI50 (H460 (Lung)): 106 nM
- GI50 (HCT116 (Colon)): 85.5 nM
- GI50 (HT29 (Colon)): 97.5 nM
- GI50 (MCAS (Ovarian)): 252 nM
- GI50 (MDA-MB-231 (Breast)): 50.5 nM
- GI50 (PC-3 (Prostate)): 160 nM

Substance: BHALys[Lys]32[α-MIDA-DTX]32[ε-PEG1100]32 [6 (b)]
- Water solubility of dendrimer [1, 6]: 100 mg/mL
- Fold increase in drug solubility [1, 7]: 6400
- Equivalent drug solubility on dendrimer [1, 8]: 32 mg/mL
- Docetaxel release in plasma ([2]; 0.5 hours): 7.5 percentage of total docetaxel
- Docetaxel release in plasma ([2]; 2.5 hours): 9 percentage of total docetaxel
- Docetaxel release in plasma ([2]; 22 hours): 23.5 percentage of total docetaxel
- GI50 (ES2 (Ovarian)): 12.5 nM
- GI50 (H460 (Lung)): 11 nM
- GI50 (PC-3 (Prostate)): 10.5 nM

Substance: BHALys[Lys]32[α-Glu-Testosterone]32[ε-PEG570]32 [Example 23]
- Equivalent drug solubility on dendrimer [1]: 26.6 mg/mL
- Fold increase in drug solubility [1]: 1109
- Water solubility of dendrimer [1]: >125 mg/mL

Substance: BHALys[Lys]32[α-GFLG-Glu-DTX]32[ε-PEG1100]32 [15 (c)]
- IC50 (A2780): 13.6 nM
- IC50 (A549): 8.1 nM
- IC50 (DU-145): 29.5 nM
- IC50 (H460): 31.8 nM
- IC50 (HCT-116): 7.2 nM
- IC50 (HT-29): 5.7 nM
- IC50 (MCF-7): 8.3 nM
- IC50 (PC-3): 11.8 nM
